Assay results from PMC9977398, “Next-generation membrane-active glycopeptide antibiotics that also inhibit bacterial cell division” (Chemical Science, 2023).
In brackets after ≈: the same amount, converted by molar mass. Like-named read-outs stand apart in the source and are kept apart here.

Experiments:
[1] = tested on: VRE 51559 (vancomycin-resistant E. faecium, VanA phenotype, ATCC 51559); assay: MIC determination, micro-dilution broth; format: cell-based
Experimental: (§1) The increase in the carbon content of substituted moieties from six (1) to seven (2 and 3) to ten (5) to twelve (4), increased activity. […]
(§2) Test compound was assayed in a micro -dilution broth format as per the CLSI guideline. The bacterial freeze dried stock samples were stored at -80 °C. About 5 μL of these stocks were added to 3 mL of the respective broth and the culture was grown for 6 h at 37°C with prior to the experiments. This 6 h grown culture was diluted to give effective cell concentration of 10 5 CFU/mL which was then used for determining MIC. Compounds were serially diluted 2 -fold, in sterile millipore water and 50 μL of these serial dilutions were added to the wells of 96 well plate followed by the addition of about 150 μL of bacterial solution. The plates were then incubated for 18-24 h at 37 °C. The O.D. value at 600 nm was recorded using TECAN (Infinite series, M200 pro) Plate Reade r. Each concentration had triplicate values and the whole experiment was done at least twice and the MIC value was determined by taking the average of triplicate O. D. values for each concentration and plotting it against concentration. The data was then subjected to sigmoidal fitting. From the curve the MIC value was determined, as the point where the O. D. was similar to that of control having no bacteria.

[2] = tested on: VRE 51575 (vancomycin-resistant E. faecalis, VanB phenotype, ATCC 51575); assay: MIC determination, micro-dilution broth; format: cell-based
Experimental: as §1, §2

[3] = tested on: VRSA 1 (vancomycin-resistant S. aureus); assay: MIC determination, micro-dilution broth; format: cell-based; settings: Staphylococcus aureus, read-out: Minimum inhibitory concentration, VRSA 1
Experimental: as §1, §2

[4] = tested on: VRSA 12 (vancomycin-resistant S. aureus); assay: MIC determination, micro-dilution broth; format: cell-based; settings: Staphylococcus aureus, read-out: Minimum inhibitory concentration, VRSA 12
Experimental: as §1, §2

[5] = tested on: VRSA 4 (vancomycin-resistant S. aureus); assay: MIC determination, micro-dilution broth; format: cell-based; settings: Staphylococcus aureus, read-out: Minimum inhibitory concentration, VRSA 4
Experimental: as §1, §2

[6] = tested on: human erythrocytes; assay: Haemolysis assay; format: cell-based; settings: human, 1 h, pH 7.4
Experimental: To select the lead compounds, the toxicity of 1–10 was tested against human erythrocytes as their hemolytic activity (HC50). The HC50 is determined as the concentration at which 50% of the compound treated cells are lysed. […] The HC50 for compounds 6–8 was also greater than 500 μM. […] Based on the in vitro activity and hemolysis studies, VanQbiph (4) from the aryl-substituted compounds and VanQAmC10 (8) from the alkyl-chain substituted compounds were selected for further investigations. […] VanQAmC10 (8) was additionally non-toxic to RAW 264.7 cells up to 40 μM and was therefore taken forward in vivo investigation.[18]
50 μL of serially diluted compound was added into 96 well microtiter plates. Freshly drawn, heparanized human blood was centrifuged down to obtain the erythrocytes and re-suspended to 5 vol % in PBS (pH 7.4). 150 μL of the erythrocyte suspension was added to the serially diluted compounds (from 500 µM to 2 µM). One set without compound and other with 50 μL of 1 vol % solution of Triton X-100 were kept as controls. The plates were incubated at 37 °C for 1 h followed by centrifugation at 3,500 rpm for 5 min. 100 μL of the supernatant from each well were transferred into fresh microtiter plates, and A540 was measured.
% haemolysis = (A - A0)/(Atotal -A0) × 100, where A is the absorbance of the test well, A 0 the absorbance of the negative controls (without compound), and A total the absorbance of 100 % hemolysis wells (with Triton X -100), all at 540 nm. […]

[7] = tested on: VRSA; assay: MIC against VRSA (strain not specified / strains taken together); format: cell-based, S. aureus; settings: ratio of MICs
Experimental: The increase in the carbon content of substituted moieties from six (1) to seven (2 and 3) to ten (5) to twelve (4), increased activity.
VanQAmC14 (10): Yield 65%; HPLC purity 96%; 1H-NMR (400 MHz, DMSO-d6) δ/ppm:
as §2

[8] = tested on: carbapenem-resistant A. baumannii; assay: Murine chronic burn-wound infection model; format: in vivo, mice; settings: 30 mg kg^−1 topically for 5 days; untreated 8 log CFU g^−1
Experimental: Fig. 6 (A) Propensity of vancomycin and VanQAmC10 to induce resistance in MRSA upon serial exposure to sub-MIC concentrations; (B) (i) experimental design for in vivo efficacy study in a murine thigh infection model, (ii) in vivo efficacy of VanQAmC10 and vancomycin against the multidrug-resistant methicillin-resistant S. aureus (MRSA) (n = 3/dose). Antibiotics were administered intraperitoneally twice at 12 h intervals at a dose of 12 mg kg^−1. (C) (i) Experimental design for in vivo efficacy study in murine burn wound infection model, (ii) in vivo efficacy of VanQAmC10 and colistin against the carbapenem-resistant A. baumannii (n = 5/dose, 1 mouse died in untreated control). VanQAmC10 and colistin were treated topically at 30 mg kg^−1 for 5 days (‘***’ indicates p < 0.0001, ‘**’ indicates p < 0.001, ‘*’ p < 0.05, p = 0.08 (n.s.) for VanQAmC10 with respect to vancomycin).
Further, the efficacy of VanQAmC10 (8) was tested in a chronic burn-wound infection model of A. baumannii.[40] Chronic burn wounds on the back of mice were infected with A. baumannii. […] Infected mice were treated with 30 mg kg^−1 of VanQAmC10 and colistin for five days consecutively. The bacterial load in the untreated group increased to 8 log CFU g^−1 six days post-infection. […] The use of colistin is however limited due to its toxicity and bacteria easily develop resistance to it. […]

[9] = tested on: VRSA 4 (vancomycin-resistant S. aureus); design: method as in PMID 32195571; settings: previously reported; cited from earlier work
[10] = tested on: VRE 51575 (vancomycin-resistant E. faecalis, VanB phenotype, ATCC 51575); design: method as in PMID 32195571; settings: previously reported; cited from earlier work
[11] = tested on: human erythrocytes; design: method as in PMID 32195571; settings: previously reported; cited from earlier work
[12] = tested on: VRSA; design: method as in PMID 32195571; settings: strain not specified, Fig. 1 legend; MIC against VRSA previously reported; cited from earlier work
[13] = tested on: A. baumannii; design: method as in PMID 32195571; settings: cited from earlier work
[14] = mice, intravenous injection; cited from earlier work

SMILES	MIC ([1]; Enterococcus; read-out: Minimum inhibitory concentration, VRE 51559)	MIC ([2]; Enterococcus; read-out: Minimum inhibitory concentration, VRE 51575)	MIC [3]	MIC [4]	MIC [5]	HC50 [6]	fold increase in activity as compared to vancomycin against VRSA [7]	lower bacterial load as compared to the untreated mice [8]	Minimum inhibitory concentration, VRSA 4 [9]	Minimum inhibitory concentration, VRE 51575 [10]	HC50 [11]	MIC against VRSA [12]	resistance induction in A. baumannii [13]	LD50 [14]	MIC ([1]; Enterococcus, read-out: Minimum inhibitory concentration, VRE 51559)	MIC ([2]; Enterococcus, read-out: Minimum inhibitory concentration, VRE 51575)
CNC(CC(C)C)C(=O)NC1C(=O)NC(CC(N)=O)C(=O)NC2C(=O)NC3C(=O)NC(C(=O)NC(C(=O)NCCC[N+](C)(C)Cc4ccc(-c5ccccc5)cc4)c4cc(O)cc(O)c4-c4cc3ccc4O)C(O)c3ccc(c(Cl)c3)Oc3cc2cc(c3OC2OC(CO)C(O)C(O)C2OC2CC(C)(N)C(O)C(C)O2)Oc2ccc(cc2Cl)C1O (stereo not shown) [VanQbiph (4)]	6.1 µM	12.3 µM	7.8 µM	15.7 µM	3.9 µM	>500 µM	22 to 88 fold	–	–	–	–	–	–	–	–	–
CCCCCCCCCCNC(=O)C[N+](C)(C)CCCNC(=O)C1NC(=O)C2NC(=O)C(NC(=O)C3NC(=O)C(CC(N)=O)NC(=O)C(NC(=O)C(CC(C)C)NC)C(O)c4ccc(c(Cl)c4)Oc4cc3cc(c4OC3OC(CO)C(O)C(O)C3OC3CC(C)(N)C(O)C(C)O3)Oc3ccc(cc3Cl)C2O)c2ccc(O)c(c2)-c2c(O)cc(O)cc21 (stereo not shown) [VanQAmC10 (8)]	–	–	–	–	–	–	–	2.2 log CFU g^−1	1.6 to 3.1 µM	4 µM	>500 µM	1.6 µM	does not induce resistance	70 mg/kg	–	–
CN[C@H](CC(C)C)C(=O)N[C@H]1C(=O)N[C@@H](CC(N)=O)C(=O)N[C@H]2C(=O)N[C@H]3C(=O)N[C@H](C(=O)N[C@H](C(=O)O)c4cc(O)cc(O)c4-c4cc3ccc4O)[C@H](O)c3ccc(c(Cl)c3)Oc3cc2cc(c3O[C@@H]2O[C@H](CO)[C@@H](O)[C@H](O)[C@H]2O[C@H]2C[C@](C)(N)[C@H](O)[C@H](C)O2)Oc2ccc(cc2Cl)[C@H]1O [Vancomycin, reference compound]	–	–	345 µM (≈ 500 µg/mL)	345 µM (≈ 500 µg/mL)	345 µM (≈ 500 µg/mL)	–	–	–	–	–	–	–	–	–	250 µM (≈ 362 µg/mL)	750 µM (≈ 1090 µg/mL)
